Data set [1] addresses SARS-CoV-2 M^pro (Severe acute respiratory syndrome coronavirus 2, UniProt P0DTD1). Description: biochemical. Conditions: for inhibition at 10 µM: read-out: Enzymatic Inhibition Rate (%), primary screening, 10 μM, incubation for 5 min.
Data set [2] is described as follows: MTT cytotoxicity assay, HFF-1 cells. Format: cell-based. Conditions: human. How it is done: (§1) The human HFF-1 and monkey Vero E6 cells were provided by Cell Bank in Shanghai, Chinese Academy of Sciences. HFF-1 cells were cultured in DMEM complete medium containing 15% FBS, 100 U/mL penicillin, and 100 μg/mL of streptomycin, while Vero E6 cells were maintained in DMEM complete medium containing 10% FBS. They were maintained at 37 °C in a humidified atmosphere with 5% CO2 (V/V).
(§2) The in vitro cytotoxicity of compounds was determined by the standard MTT assay according to our reported procedure. Briefly, well-cultured cells were seeded in 96-well plates at a density of 5 × 10^3 cells per well. After being cultured overnight in a 37 °C humidified incubator (5% CO2, V/V), cells were incubated with tested compounds for 48 h. Then, cells in each well were treated with MTT in PBS (5 mg/mL) for 4 h at 37 °C, and formazan crystals in viable cells were dissolved by dimethyl sulfoxide (150 μL) at ambient temperature. The absorbance of solubilized formazan was measured by the Synergy multimode reader (BioTek, Winooski, VT, American) at the wavelength of 490 nm.
Background: Tetrazolium dyes change colour on reduction, which living cells bring about.

A short description of data set [3]: MTT cytotoxicity assay, Vero E6 cells. Format: cell-based. Conditions: African green monkey. As for the experimental part:
as §1, §2

For data set [4], the system named is SARS-CoV-2 N proteins in Vero E6 cells. Briefly: Immunofluorescence assay for viral N proteins in infected Vero E6 cells. The settings on record: 10 μM, 48 h. The format is cell-based.
Procedure: Human Vero E6 cells were infected by live SARS-CoV-2 at an MOI value of 0.01. […] Then, cells in each group were collected and the immunofluorescence assay was used to detect the expression of viral N protein, and the result was analyzed by high-content screening.
Data set [5] has as its system adenovirus. The settings on record: concentrations from 0.0156 μM to 1 μM; cited from earlier work.
The conditions of data set [6]: experimental value; cited from earlier work.

Structures are written as SMILES.

As usually defined, the inhibition is the relative decrease from the control value, in per cent. The IC50 is the concentration that gives 50% inhibition. What is called CC50 is the concentration at which the toxic effect on the cells reaches its halfway point. One may read the LogP as the decadic logarithm of the partition coefficient of the neutral form, usually between octanol and water.

Turning to `COc1cc(C(CC=C(C)C)OCCC(C)C)c(OC)c2c1C(=O)C=CC2=O` (stereo not shown) [Compound 4, 6-(1-(Isopentyloxy)-4-methylpent-3-en-1-yl)-5,8-dimethoxy Naphthalene-1,4-dione], in data set [1], the inhibition at 10 µM was 10.6%.
`COc1cc(C(CC=C(C)C)OCCC(C)C)c(OC)c2c1/C(=N/O)C=C/C2=N\O` (stereo not shown) [Compound 5, (1E,4E)-6-(1-(Isopentyloxy)-4-methylpent-3-en-1-yl)-5,8-dimethoxynaphthal-ene-1,4-dione Dioxime]: the inhibition at 10 µM in data set [1] is approximately 36%.
In the case of `COc1cc(C(CC=C(C)C)OCCC(C)C)c(OC)c2c1/C(=N/OC(=O)c1ccccc1)C=C/C2=N\OC(=O)c1ccccc1` (stereo not shown) [Compound 6, (1E,4E)-6-(1-(Isopentyloxy)-4-methylpent-3-en-1-yl)-5,8-dimethoxynaphthalene-1,4-dione O,O-Dibenzoyl Dioxime], in data set [1] (primary screening, 10 μM, incubation for 5 min), the “Enzymatic Inhibition Rate (%)” value was “complete loss of activity”. The inhibition at 10 µM in data set [1] was -6.9%.
Regarding `COc1cc(C(CC=C(C)C)OCCCCC(C)O)c(OC)c2c1/C(=N/O)C=C/C2=N\O` (stereo not shown) [Compound 9, (1E,4E)-6-(1-((5-Hydroxyhexyl)oxy)-4-methylpent-3-en-1-yl)-5,8-dimethoxy Naphthalene-1,4-dione Dioxime], the inhibition at 10 µM in data set [1] stood at 10.7%.
For `COc1cc(C(CC=C(C)C)OCCCCCCCCO)c(OC)c2c1/C(=N/O)C=C/C2=N\O` (stereo not shown) [Compound 10, (1E,4E)-6-(1-((8-Hydroxyoctyl)oxy)-4-methylpent-3-en-1-yl)-5,8-dimethoxy Naphthalene-1,4-dione Dioxime], in data set [1], the inhibition at 10 µM turned out to be 11.3%.
Consider `COc1cc(C(CC=C(C)C)OC(=O)C=Cc2ccccc2)c(OC)c2c1/C(=N/O)C=C/C2=N\O` (stereo not shown) [Compound 12, 1-((5E,8E)-5,8-bis(Hydroxyimino)-1,4-dimethoxy-5,8-dihydronaphthalen-2-yl)-4-methylpent-3-en-1-yl Cinnamate], for which, in data set [1], the inhibition at 10 µM was 28%.
For the compound `COc1cc([C@@H](CC=C(C)C)OCCC(C)C)c(OC)c2c1/C(=N/O)C=C/C2=N\O` [Compound 14, (1E,4E)-6-((R)-1-(Isopentyloxy)-4-methylpent-3-en-1-yl)-5,8-dimethoxy Naphthalene-1,4-dione Dioxime], the IC50 in data set [1] was determined as 22.8 ± 4.61 µM.
In data set [1], `COc1cc([C@H](CC=C(C)C)OCCC(C)C)c(OC)c2c1/C(=N/O)C=C/C2=N\O` [Compound 15, (1E,4E)-6-((S)-1-(Isopentyloxy)-4-methylpent-3-en-1-yl)-5,8-dimethoxy Naphthalene-1,4-dione Dioxime] returned a concentration for half-maximal inhibition (IC50) of 12.5 ± 3.59 µM.
As for `CC(C)=CC[C@@H](O)C1=CC(=O)c2c(O)ccc(O)c2C1=O` [Shikonin], the inhibition at 10 µM in data set [1] was 51.4%. Further, the CC50 at 48 h is 1.31 ± 0.09 µM in data set [2] and 1.48 ± 0.06 µM in data set [3]. Besides, the “blue fluorescence (DAPI) from the live cell nucleus” value in data set [4] is reported as “almost invisible”. Besides, the “expression of viral N proteins versus untreated cells” value in data set [4] (MOI 0.01) is recorded as “significantly decreased expression of viral N proteins”. In addition, in data set [5], the “inhibitory effects against adenovirus” value is given as “showed inhibitory effects against adenovirus”. Moreover, the log partition coefficient (LogP) in data set [6] is given as 1.08.

The values are drawn from article PMC11945236 (Molecules, 2025).
